Experimental data as given in publication PMC11160895 (Research Square, 2024).

Tests used:
[1] = target: T1, HLA-A3 (Homo sapiens, UniProt P04439); experiment: 19F NMR of 5F-Trp6 peptides bound to HLA-A3; set-up: the extracellular domain of the MHC heavy chain, β2-microglobulin, TCR α and β chains, and the s3–4 scTv were overexpressed in E coli; made in house
Description: ^19F NMR spectra were recorded using Bruker 600 MHz NMR instrument with a QCI cryogenic probe at NMRFAM, University of Wisconsin-Madison. […] To obtain similar sensitivities on the two samples at different concentrations, the total acquisition times of the 1D experiments in Figs. 7A–F in were set to approximately 12 hours and 33 hours, accordingly. The spectra were acquired in 4-hour blocks interleaved with proton 1D recordings to verify sample stability. For the data in Extended Data Figs. 6D,E total acquisition times were 20 minutes for both complexes. Probe temperature was maintained at a calibrated value of 5.2 °C. Once all blocks were recorded, they were checked individually for frequency drift, which was not detected, and combined to obtain combined datasets with improved signal/noise ratio. The reference frequency of the ^19F channel was set through internal routines of the Topspin acquisition software after the NMR spectrometer was locked on D2O. […] To improve the signal/noise ratio, we compared recording of ^19F 1D spectra with and without proton decoupling. […] We also optimized a recycle delay for the fluorine 1D experiment and determined that 1 s was the optimal time. Therefore, D1 of 0.4 s was used with AQ of 0.59 s. Line shape deconvolution was performed using Mestrelab MNova NMR. Free induction decays were processed with an exponential window function, Fourier- transformed, and baseline corrected prior to fitting with Lorentzian line shapes. CEST experiments were performed by applying 10–40 μW irradiation on a proton channel at a desired ppm position for 0.4 s. The total acquisition time for each CEST dataset was 2 hours. The bandwidth of the saturation pulse was directly measured on a free peptide sample by varying the saturation ppm position around the sharp peptide peak. The direct effect of the pre-saturation pulse was found detectable within +/− 0.5 ppm from the irradiation position. Exchange Spectroscopy (EXSY) experiments were performed with 50 ms mixing time. […] Data were collected in four six-hour blocks that were combined for processing.

[2] = test system: T cells expressing TCR4; experiment: T cell degranulation CD107a, TCR4-transduced T cells co-cultured with HLA-A3+ antigen presenting cells; conditions: peptide concentrations as high as 10 μM
Description: The peptide specificity of TCR-transduced T cells was assessed by intracellular cytokine staining (ICS) using the BD Cytofix/CytoPerm Plus Kit, following manufacturer’s instructions. Cos-7 cells were electroporated with 100 μg/mL of HLA-A*03:01 mRNA and plated into 96-well round-bottom plates overnight. […] Cells were washed with 1x PBS to remove any unbound peptide. […] Cells were washed with 1×PBS and then fixed and permeabilized for 15 minutes at 4 °C. […] All antibodies were used at a final concentration of 5 μg/mL. Finally, cells were washed with perm-wash buffer, suspended in 2% FBS in PBS and acquired on an X20 LSR Fortessa flow cytometer with the BD FACSDiva software.

[3] = test system: neoantigen-specific TCRs; conditions: cited from earlier work
Description: The slight change in the position of the side chain in the complex with TCR3 distorts the geometry of this interaction, although the side chain is still embedded in a complex electrostatic environment with structur ...

[4] = target: T1, HLA-A3; conditions: fluorescence anisotropy, position 5 5-carboxyfluorescein-lysine peptide, 100 nM complex + 100 μM unlabeled peptide, 20 mM NaH2PO4, 75 mM NaCl, pH 7.4; cited from earlier work
Description: (§1) Anticipating lengthy NMR data collection times, we first verified the stability of the peptide/HLA-A3 complexes.

[5] = target: T1, HLA-A3; experiment: Peptide dissociation from HLA-A3 by fluorescence anisotropy; conditions: 100 nM labeled complex + 100 μM unlabeled peptide, pH 7.4
Description: as §1
Fluorescence anisotropy measurements for peptide dissociation were performed as previously described ([15]). […] Changes in anisotropy were recorded as a function of time.

[6] = test system: TCR4; experiment: SPR binding of TCR4 to peptide/HLA-A3 complexes, 4 °C; conditions: HBS-EP pH 7.4, gp100 presented by HLA-A2 as irrelevant negative control
Description: To help ensure the stability of the samples, we also performed the experiments at the reduced temperature of 4 °C.
Affinities and binding kinetics were measured via surface plasmon resonance using a Biacore T200 instrument. […] The s3–4 scTv was employed as a positive control and the irrelevant Tax11–19/HLA-A*02:01 or gp100/HLA-A*02:01 complexes as a negative control. […] Experiments were performed at either 4 °C or 25 °C as indicated with a blank activated and deactivated flow cell as reference. Binding affinities were determined by fitting the curve of the reference-subtracted steady-state responses against the injected protein concentrations to a 1:1 binding model in OriginPro 2024. For measurements of dissociation rates, experiments were performed at 4 °C. TCRs or the s3–4 scTV were immobilized to approximately 300 RU on a CM5 Series S sensor chip with peptide/MHC complexes injected at a flow rate of 100 μL/min. The dissociation rate (koff) of a TCR-pMHC binding was determined by fitting the dissociation phase of the sensorgram to a single exponential decay function in OriginPro 2024. The association rate (kon) was calculated from the ratio of measured koff and the separately measured KD at 4 °C using kon=koff/KD.

- number of 19F peaks of the complex by line shape fitting ([1]; 5F-Trp6 peptide/HLA-A3 complex, 5 °C): at least eight
- stability of peptide/HLA-A3 complex at 25 °C [5]: markedly less stable
- binding to TCR4 (detection) [6]: No binding was detectable
Sequence: AHHGGWTTK [WT peptide, wild-type PIK3CA counterpart peptide presented by HLA-A3]
- conformational exchange (CEST) ([1]; 5F-Trp6 peptide/HLA-A3 complex, 5 °C, EXSY consistent): all the peaks were in exchange except for the peak at −125.12 ppm
- stability of complex on storage (19F NMR) ([1]; approximately 11 months at 4 °C, 5F-Trp6 peptide/HLA-A3): significant increase in the resonance at −125.12 ppm
- T cell stimulation (CD107a) [2]: no stimulation was evident
- recognition by multiple neoantigen-specific TCRs [3]: unable to recognize the WT peptide/HLA-A3 complex
- stability of peptide/HLA-A3 complex at 37 °C [4]: markedly less stable
